Measured values reported in patent US8202844B2, “Indole antiviral compositions and methods” (The Regents of the University of Michigan, priority 2003, dated 2012).
pIC50: −log10 of the molar value. Read-outs that look alike come from different tables or passages of the source.

How the values were obtained:
[1] = test system: human cytomegalovirus (HCMV); details: cited from earlier work; for activity against HCMV: literature reports
uninfected host cells = details: cited from earlier work
[2] = Cytotoxicity in growing KB cells, crystal violet staining; assay type: cell-based; details: human, read-out: 50% Inhibitory Concentration, KB Cytotoxicity
Description: (§1) Cytotoxicity assays. Two different assays were used for routine cytotoxicity testing. (i) Cytotoxicity produced in stationary HFF cells was determined by microscopic inspection of cells not affected by the virus used in plaque assays (Turk, et al., Agents Chemother. 1987, 31, 544-550, herein incorporated by reference). (ii) The effect of compounds during two population doublings of KB cells was determined by crystal violet staining and spectrophotometric quantitation of dye eluted from stained cells as described earlier (Prichard, et al., Antiviral Res. 1991, 35, 1060-1065, herein incorporated by reference). Briefly, 96-well cluster dishes were planted with KB cells at 3000-5000 cells per well. After overnight incubation at 37° C., test compound was added in quadruplicate at six to eight concentrations. Plates were incubated at 37° C. for 48 h in a CO2 incubator, rinsed, fixed with 95% ethanol, and stained with 0.1% crystal violet. Acidified ethanol was added and plates read at 570 nm in a spectrophotometer designed to read 96-well ELISA assay plates.
(§2) Data Analysis. Dose response relationships were used to quantitate drug effects by linear regression of the percent inhibition of parameters derived in the preceding assays against log10 drug concentrations. Fifty percent inhibitory concentrations (IC50's) were calculated from the linear portions of the regression lines. Samples containing positive controls (acyclovir for HSV-1, GCV for HCMV, and 2-acetylpyridine thiosemicarbazone for cytotoxicity) were used in all assays.

[3] = test system: herpes simplex virus type 1 (HSV-1); assay: HSV-1 ELISA; assay type: cell-based, HSV-1 KOS strain in BSC-1 cells
Description: (§3) Virological procedures. The Towne strain, plaque-purified isolate Po, of HCMV was kindly provided by Dr. Mark Stinski, University of Iowa. The KOS strain of HSV-1 was used in most experiments and was provided by Dr. Sandra K. Weller, University of Connecticut. Stock HCMV was prepared by infecting HFF cells at a multiplicity of infection (m.o.i.) of <0.01 plaque-forming units (p.f.u.) per cell as detailed previously (Turk, et al., Agents Chemother. 1987, 31, 544-550, herein incorporated by reference). High titer HSV-1 stocks were prepared by infecting KB cells at an m.o.i. of <0.1 also as detailed previously (see Turk et al.). Virus titers were determined using monolayer cultures of HFF cells for HCMV and monolayer cultures of BSC-1 cells for HSV-1 as described earlier (Prichard, et al., J. Virol. Methods 1990, 28, 101-106, herein incorporated by reference). Briefly, HFF or BSC-1 cells were planted as described above in 96-well cluster dishes and incubated overnight at 37° C. The next day cultures were inoculated with HCMV or HSV-1 and serially diluted 1:3 across the remaining eleven columns of the 96-well plate. After virus adsorption the inoculum was replaced with fresh medium and cultures were incubated for seven days for HCMV, two or three days for HSV-1. Plaques were enumerated under 20-fold magnification in wells having the dilution which gave 5 to 20 plaques per well. Virus titers were calculated according to the following formula: Titer (p.f.u./mL)=number of plaques×5×3^n; where n represents the n^th dilution of the virus used to infect the well in which plaques were enumerated.
HSV-1 ELISA. An ELISA was employed (Prichard, et al., Antiviral Res. 1990, 14, 181-206, herein incorporated by reference) to detect HSV-1. Ninety-six-well cluster dishes were planted with 10,000 BSC-1 cells per well in 200 μL per well of MEM(E) plus 10% calf serum. After overnight incubation at 37° C., selected drug concentrations in quadruplicate and HSV-1 at a concentration of 100 p.f.u./well were added. Following a 3-day incubation at 37° C., medium was removed, plates were blocked, rinsed, and horse radish peroxidase conjugated rabbit anti-HSV-1 antibody was added. Following removal of the antibody containing solution, plates were rinsed, and then developed by adding 150 μl per well of a solution of tetramethylbenzidine as substrate. The reaction was stopped with H2SO4 and absorbance was read at 450 and 570 nm. Drug effects were calculated as a percentage of the reduction in absorbance in the presence of each drug concentration compared to absorbance obtained with virus in the absence of drug.
as §2

[4] = test system: human cytomegalovirus (HCMV); assay: Literature activity against HCMV replication in vitro; assay type: cell-based
[5] = Cytotoxicity in stationary HFF cells, microscopic inspection; assay type: cell-based; details: human, read-out: 50% Inhibitory Concentration, HFF Cytotoxicity
Description: as §1, §2

[6] = test system: human cytomegalovirus (HCMV); assay: HCMV plaque reduction assay; assay type: cell-based, HCMV Towne strain in HFF cells; details: for pIC50: read-out: 50% Inhibitory Concentration, HCMV Activity
Description: as §3
HCMV plaque reduction assay. HFF cells in 24-well cluster dishes were infected with approximately 100 p.f.u. of HCMV per cm^2 cell sheet using the procedures detailed above. Following virus adsorption, the compounds, prepared as 10 mg/mL stock solutions in DMSO were diluted with growth medium and were added to duplicate wells in four to eight selected concentrations. After incubation at 37° C. for 7-10 days, cell sheets were fixed, stained with crystal violet and microscopic plaques enumerated as described above. Drug effects were calculated as a percentage of reduction in number of plaques in the presence of each drug concentration compared to the number observed in the absence of drug.
as §2

[7] = Good et al.; cited from earlier work
[8] = Human alphaherpesvirus 1, BSC-1, read-out: 50% Inhibitory Concentration, HSV-1 Activity
[9] = Human alphaherpesvirus 1, ELISA in BSC-1 cells, read-out: 50% Inhibitory Concentration, HSV-1 Activity
[10] = stationary human foreskin fibroblasts (HFF cells)
[11] = Human betaherpesvirus 5, plaque reduction in HFF cells

Compound | activity against HCMV [1] | IC50 at 48 h [2] | pIC50 [3, 8] | pIC50 [5] | pIC50 ([6]; Human betaherpesvirus 5, HFF) | further results
OC[C@H]1O[C@@H](n2c(Cl)cc3cc(Cl)c(Cl)cc32)[C@H](O)[C@@H]1O [Compound 4.2, 2,5,6-trichloro-1-(β-D-ribofuranosyl)indole, reference compound] | inactive | – | – | – | – | cytotoxicity (uninfected host cells; Chen et al.): non-cytotoxic
O=Cc1c(Cl)n([C@@H]2O[C@H](CO)[C@@H](O)[C@H]2O)c2cc(Cl)c(Cl)cc12 [Compound 4.3, 2,5,6-trichloro-3-formyl-1-(β-D-ribofuranosyl)indole] | even more active than TCRB | 45 µM | 4.40 | 4.35 | 6.70 | pIC50 ([1]; Chen thesis, read-out: IC50 against HCMV): 6.64; selectivity index (calculated by dividing the CC50 by the IC50) [4]: 195; CC50 (uninfected host cells; Chen thesis, read-out: CC50 against uninfected host cells): 45 µM
CN(C)c1c(C#N)c2cc(Cl)c(Cl)cc2n1[C@@H]1O[C@H](CO)[C@@H](O)[C@H]1O [Compound 4.14, 5,6-Dichloro-2-dimethylamino-3-cyano-1-(β-D-ribofuranosyl)indole] | – | 90 µM | – | – | – | pIC50 [3, 9]: < 4.00; pIC50 [5, 10]: 4.00; pIC50 [6, 11]: 4.77
COC(=N)c1c(Cl)n([C@@H]2O[C@H](CO)[C@@H](O)[C@H]2O)c2cc(Cl)c(Cl)cc12 [Compound 4.34, Methyl 2,5,6-Trichloro-1-(β-D-ribofuranosyl)indole-3-formimidate] | – | 90 µM | – | – | – | pIC50 [3, 9]: 4.15; pIC50 [5, 10]: 4.00; pIC50 [6, 11]: 6.40
CC(=O)OC[C@H]1O[C@@H](n2c(Cl)c(C(C)=O)c3cc(Cl)c(Cl)cc32)[C@H](O)[C@@H]1O [Compound 4.43, 2,5,6-Trichloro-3-acetyl-1-(5-O-acetyl-β-D-ribofuranosyl)indole] | – | – | – | – | – | antiviral activity ([6]; virus not specified, HCMV and HSV-1 were used): comparable to the fully deprotected analog
C[C@H]1O[C@@H](n2c(Cl)c(C=O)c3cc(Cl)c(Cl)cc32)[C@H](O)[C@@H]1O [Compound 4.97, 2,5,6-Trichloro-3-formyl-1-(5-deoxy-β-D-ribofuranosyl)indole] | – | 25 µM | 4.70 | 4.49 | 6.52 | –
CC(=O)OC[C@H]1O[C@@H](n2c(Br)c(C=O)c3cc(Cl)c(Cl)cc32)[C@H](O)[C@@H]1O [Compound 4.136, 5,6-Dichloro-2-bromo-3-formyl-1-(5-O-acetyl-β-D-ribofuranosyl)indole] | – | 40 µM | 4.82 | 4.49 | 6.52 | –
CC(C)Nc1nc2cc(Cl)c(Cl)cc2n1[C@H]1O[C@@H](CO)[C@H](O)[C@@H]1O [Compound 1263W94] | very active | – | – | – | – | –
OC[C@H]1O[C@@H](n2c(Cl)nc3cc(Cl)c(Cl)cc32)[C@H](O)[C@@H]1O [TCRB, 2,5,6-trichloro-1-(β-D-ribofuranosyl)benzimidazole] | potent and selective inhibitor | – | – | – | – | in vivo stability [7]: in vivo instability
